Several values for one entry are separate records, joined by “and”; a condition that tells them apart may be missing. Equal entries are not always repeated.
Legend:
Test in all cases: NCI one-dose screen
Format in all cases: cell-based, human
A549/ATCC = details: NSCLC A549/ATCC, 10 µM single dose
Summary of the method: (§1)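 One concentration (10 μM) applied to each line of the full NCI-60 panel; percent growth compared against untreated cells.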

CCRF-CEM = details: Leukemia CCRF-CEM, 10 µM single dose
Summary of the method: as §1

DU-145 = details: Prostate DU-145, 10 µM single dose
Summary of the method: as §1

EKVX = details: NSCLC EKVX, 10 µM single dose
Summary of the method: (§2)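 Single dose of 10 μM tested across the full NCI-60 cell panel. Values are percent growth inhibition relative to untreated control cells, following standard NCI methodology.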

HCT-15 = details: Colon HCT-15, 10 µM single dose
Summary of the method: as §1

HOP-62 = details: NSCLC HOP-62, 10 µM single dose
Summary of the method: (§3)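 Following the standard NCI-60 protocol, compounds were applied once at 10 μM to all 60 cancer lines. Read-out is percent growth versus untreated controls, expressed as inhibition %.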

HS 578T = details: Breast HS 578T, 10 µM single dose
Summary of the method: as §1

HT29 = details: Colon HT29, 10 µM single dose
Summary of the method: as §1

IGROV1 = details: Ovarian IGROV1, 10 µM single dose
Summary of the method: as §1

M14 = details: Melanoma M14, 10 µM single dose
Summary of the method: as §1

MDA-MB-468 = details: Breast MDA-MB-468, 10 µM single dose
Summary of the method: (§4)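 NCI-60 one-dose format: 10 μM compound; readout % growth inhibition relative to untreated cells.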

MOLT-4 = details: for Growth Percent: Leukemia MOLT-4, 10 µM single dose
Summary of the method: as §4

NCI-H226 = details: NSCLC NCI-H226, 10 µM single dose
Summary of the method: as §2

NCI/ADR-RES = details: Ovarian NCI/ADR-RES, 10 µM single dose
Summary of the method: as §1

OVCAR-4 = details: Ovarian OVCAR-4, 10 µM single dose
Summary of the method: as §1

RXF 393 = details: Renal RXF 393, 10 µM single dose
Summary of the method: as §1

SK-MEL-2 = details: Melanoma SK-MEL-2, 10 µM single dose
Summary of the method: as §3

SK-MEL-5 = details: Melanoma SK-MEL-5, 10 µM single dose
Summary of the method: as §1

SNB-75 = details: for Growth Percent: CNS SNB-75, 10 µM single dose
Summary of the method: as §2

SW-620 = details: Colon SW-620, 10 µM single dose
Summary of the method: as §1

UACC-62 = details: Melanoma UACC-62, 10 µM single dose
Summary of the method: as §1

UO-31 = details: for Growth Percent: Renal UO-31, 10 µM single dose
Summary of the method: as §2

Structure (SMILES) | Growth Percent (A549/ATCC) | Growth Percent (DU-145) | Growth Percent (EKVX) | Growth Percent (HCT-15) | Growth Percent (HOP-62) | Growth Percent (HS 578T) | Growth Percent (HT29) | Growth Percent (IGROV1) | Growth Percent (M14) | Growth Percent (MDA-MB-468) | Growth Percent (MOLT-4) | Growth Percent (NCI-H226) | Growth Percent (NCI/ADR-RES) | Growth Percent (OVCAR-4) | Growth Percent (RXF 393) | Growth Percent (SK-MEL-2) | Growth Percent (SK-MEL-5) | Growth Percent (SNB-75) | Growth Percent (SW-620) | Growth Percent (UACC-62) | also measured
Cc1c(C(=O)NCCC(=O)NO)sc2ncnc(Nc3ccc(NC(=O)Nc4ccccc4)cc3)c12 [Compound 11a, 1–(4-(6-((3-(hydroxyamino)-3-oxopropyl)carbamoyl)-5-methylthieno[2,3-d]pyrimidin-4-ylamino)phenyl)-3-phenylurea] | 97.7% and 97.77% | 110.81% | 94.6% and 94.62% | 95.7% and 95.77% | 102.3% and 102.39% | 99.6% and 99.62% | 104.0% and 104.03% | 103.0% and 103.03% | 99.1% and 99.16% | 101.3% and 101.31% | 110.5% and 110.52% | 90.4% and 90.42% | 99.0% and 99.07% | 101.4% and 101.41% | 107.3% and 107.33% | 107.0% and 107.07% | 99.1% and 99.18% | 79.7% and 79.72% | 103.0% and 103.02% | 98.7% and 98.79% | Growth Percent (CCRF-CEM): 106.8% and 106.84%; Growth Percent (UO-31): 83.7% and 83.77%
Cc1c(C(=O)NO)sc2ncnc(Nc3ccc(NC(=O)Nc4cccc(C(F)(F)F)c4)cc3)c12 [Compound 7c, 1–(4-(6-(hydroxycarbamoyl)-5-methylthieno[2,3-d]pyrimidin-4-ylamino)phenyl)-3–(3-(trifluoromethyl)phenyl)urea] | 100.4% and 100.47% | 104.5% and 104.51% | 95.7% and 95.77% | 97.7% and 97.77% | 93.7% and 93.71% | 90.3% and 90.32% | 97.2% and 97.28% | 97.6% and 97.68% | 102.4% and 102.43% | 109.16% | 88.2% and 88.24% | 99.2% and 99.29% | 97.6% and 97.66% | 103.4% and 103.45% | 106.61% | 108.5% and 108.54% | 99.6% and 99.67% | 54.0% and 54.04% | 108.7% and 108.79% | 96.4% | Growth Percent (CCRF-CEM): 101.6%; inhibition at 10 µM (MOLT-4; Homo sapiens, leukaemia MOLT-4, 10 μM): 11.8%; inhibition at 10 µM (SNB-75; Homo sapiens, CNS SNB-75, 10 μM): 46%; inhibition at 10 µM (UO-31; Homo sapiens, renal UO-31, 10 μM): 24.7%; Growth Percent (UO-31): 75.7% and 75.79%
COc1cccc(NC(=O)Nc2ccc(Nc3ncnc4sc(C(=O)NO)c(C)c34)cc2)c1 [Compound 7b, 1–(4-(6-(hydroxycarbamoyl)-5-methylthieno[2,3-d]pyrimidin-4-ylamino)phenyl)-3–(3-methoxyphenyl)urea] | 101.8% and 101.81% | 103.1% and 103.17% | 92.8% and 92.81% | 99.0% and 99.07% | 101.6% and 101.62% | 102.4% and 102.45% | 103.6% and 103.62% | 106.5% and 106.51% | 101.0% and 101.01% | 98.8% and 98.87% | 112.4% and 112.45% | 94.5% and 94.51% | 97.6% and 97.67% | 101.8% and 101.82% | 104.4% | 100.6% and 100.68% | 99.5% | 92.7% and 92.76% | 101.2% and 101.24% | 96.7% and 96.74% | Growth Percent (CCRF-CEM): 101.2% and 101.22%; Growth Percent (UO-31): 83.4% and 83.47%
Cc1c(C(=O)NCCCC(=O)NO)sc2ncnc(Nc3ccc(Cl)cc3)c12 [Compound 20c, 4–(4-chlorophenylamino)-N-(4-(hydroxyamino)-4-oxobutyl)-5-methylthieno[2,3-d]pyrimidine-6-carboxamide] | 104.4% and 104.46% | 116.8% and 116.86% | 90.5% and 90.52% | 99.0% and 99.06% | 102.5% and 102.52% | 99.4% and 99.45% | 108.2% and 108.21% | 81.1% and 81.14% | 107.6% and 107.62% | 110.9% and 110.91% | 108.7% and 108.77% | 92.0% and 92.02% | 100.5% and 100.58% | 109.4% | 109.5% and 109.55% | 106.2% and 106.25% | 100.0% | 79.1% and 79.17% | 102.3% and 102.37% | 98.8% and 98.83% | Growth Percent (CCRF-CEM): 108.0% and 108.09%; Growth Percent (UO-31): 81.5% and 81.51%
Cc1c(C(=O)NO)sc2ncnc(Nc3ccc(F)c(Cl)c3)c12 [Compound 15d, 4–(3-chloro-4-fluorophenylamino)-N-hydroxy-5-methylthieno[2,3-d]pyrimidine-6-carboxamide] | 100.7% and 100.72% | 101.9% and 101.96% | 88.0% and 88.08% | 96.0% and 96.09% | 99.3% | 102.4% and 102.42% | 102.5% and 102.54% | 103.9% and 103.95% | 110.2% and 110.24% | 85.6% and 85.68% | 110.0% and 110.03% | 103.2% and 103.24% | 99.6% and 99.61% | 102.2% and 102.21% | 100.3% and 100.37% | 100.9% | 100.5% and 100.59% | 99.2% | 108.2% and 108.22% | 88.5% and 88.53% | Growth Percent (UO-31): 77.0% and 77.07%
Cc1c(C(=O)NO)sc2ncnc(Nc3ccc(NC(=S)Nc4ccccc4)cc3)c12 [Compound 7d, 1–(4-(6-(hydroxycarbamoyl)-5-methylthieno[2,3-d]pyrimidin-4-ylamino)phenyl)-3-phenylthiourea] | 101.3% and 101.33% | 106.96% | 93.6% and 93.61% | 95.3% and 95.39% | 100.8% and 100.85% | 104.5% and 104.57% | 102.7% and 102.73% | 111.5% and 111.55% | 104.3% | 103.9% and 103.92% | 111.3% and 111.35% | 103.8% and 103.88% | 99.5% and 99.55% | 104.6% and 104.62% | 103.7% and 103.72% | 104.1% and 104.16% | 101.2% and 101.24% | 87.9% and 87.95% | 104.8% and 104.86% | 94.9% and 94.97% | Growth Percent (UO-31): 85.0% and 85.06%

Source: article PMC8253220, “Molecular design, synthesis and in vitro biological evaluation of thienopyrimidine–hydroxamic acids as chimeric kinase HDAC inhibitors: a challenging approach to combat cancer” (Journal of Enzyme Inhibition and Medicinal Chemistry, 2021)
